Legend:
[1] = Metabolic stability in human liver microsomes assessed as clearance; type: ADME, Microsome; details: read-out: CLH
[2] = Metabolic stability in mouse liver microsomes assessed as clearance; type: ADME, Microsome; details: read-out: CLH
[3] = AUC (0 to infinity) in ICR mouse at 5 mg/kg, iv; type: ADME, organism-based; set-up: route intravenous, time infinity, dose 5 mg/kg; details: in vivo
[4] = Metabolic stability in dog liver microsomes assessed as clearance; type: ADME, Canis lupus familiaris, Microsome; details: read-out: CLH
[5] = Metabolic stability in rat liver microsomes assessed as clearance; type: ADME, Microsome; details: read-out: CLH
[6] = Metabolic stability in monkey liver microsomes assessed as clearance; type: ADME, Macaca mulatta, Microsome; details: rhesus monkey, read-out: CLH
[7] = Volume of distribution at steady state in ICR mouse at 5 mg/kg, iv; type: ADME, organism-based; details: in vivo, read-out: Vdss
[8] = Half life in ICR mouse at 5 mg/kg, iv; type: ADME, organism-based; details: in vivo

CLint scaled [1]: 74.3 mL/min/kg | CLint scaled [2]: 331 mL/min/kg | AUC(0-inf) [3]: 776 ng·h/mL | CLint scaled [4]: 61.5 mL/min/kg | CLint scaled [5]: 91.3 mL/min/kg | CLint scaled [6]: 196 mL/min/kg | Vd [7]: 5.21 L/kg | half-life [8]: 1.47 h
Structure (SMILES): COC(=O)c1sccc1Nc1nc(Nc2cc3c(cc2OC)CCN3C(=O)CN(C)C)ncc1C(F)(F)F

Reference: ChEMBL document CHEMBL4765429, “Discovery of methyl 3-((2-((1-(dimethylglycyl)-5-methoxyindolin-6-yl)amino)-5-(trifluoro-methyl) pyrimidin-4-yl)amino)thiophene-2-carboxylate as a potent and selective polo-like kinase 1 (PLK1) inhibitor for combating hepatocellular carcinoma” (Eur J Med Chem, 2020)
